Laboratory results from patent US7514446B2, “Pyrimidine compounds” (SmithKline Beecham Corporation, priority 2003, dated 2009).
pIC50: −log10 of the molar value. Counter-ions that a name gives are not always drawn.

What was measured:
[1] = tested on: RKO colon tumor cell line; test: Methylene Blue Growth Inhibition Assay, RKO; type: cell-based; conditions: Homo sapiens, 72 h; RKO cells, 3 days; read-out: MeB Cell Line IC50
Experimental: (§1) II. Methylene Blue Growth Inhibition Assay
(§2) Normal Human foreskin fibroblasts (HFF) and human colon (HCT116, RKO), lung (H460), prostate (PC3), and breast tumor (MCF7) cell lines were cultured in high glucose DMEM (Life Technologies) containing 10% fetal bovine serum (FBS) at 37° C. in a humidified 10% CO2, 90% air incubator. Cells were harvested using trypsin/EDTA, counted using a haemocytometer, and plated in 100 μl of the appropriate media, at the following densities, in a 96-well tissue culture plate (Falcon 3075): HFF 5,000 cells/well, HCT116 3,000 cells/well, RKO 2,500 cells/well, H460 2,000 cells/well, PC3 8,000 cells/well, MCF7 4,000 cells/well. The next day, compounds were diluted in DMEM containing 100 μg/ml gentamicin, at twice the final required concentration, from 10 mM stock solutions in DMSO. 100 μl/well of these dilutions were added to the 100 μl of media currently on the cell plates. Medium containing 0.6% DMSO was added to control wells. Compounds diluted in DMEM were added to all cell lines. The final concentration of DMSO in all wells was 0.3%. Cells were incubated at 37° C., 10% CO2 for 3 days. Medium was removed by aspiration. Cell biomass was estimated by staining cells with 90 μl per well methylene blue (Sigma M9140, 0.5% In 50:50 ethanol:water), and incubation at room temperature for at least 30 minutes. Stain was removed, and the plates rinsed under a gentle stream of water, and air-dried. To release stain from the cells 100 μl of solubilization solution was added (1% N-lauroyl sarcosine, Sodium salt, Sigma L5125, in PBS), and plates were shaken gently for about 30 minutes. Optical density at 620 nm was measured on a microplate reader. Percent inhibition of cell growth was calculated relative to vehicle treated control wells. Concentration of compound that inhibits 50% of cell growth (IC50) was interpolated using nonlinear regression (Levenberg-Marquardt) and the equation, y=Vmax*(1−(x/(K+x)))+Y2, where “K” was equal to the IC50. In Table 1, +=10->30 uM; ++=1-10 uM: +++=<1 uM.

[2] = tested on: HCT116 colon tumor cell line; test: Methylene Blue Growth Inhibition Assay, HCT116; type: cell-based; conditions: Homo sapiens, HCT-116, 72 h; HCT116 cells, 3 days; read-out: MeB Cell Line IC50
Experimental: as §1, §2

[3] = tested on: PC3 prostate tumor cell line; test: Methylene Blue Growth Inhibition Assay, PC3; type: cell-based; conditions: Homo sapiens, PC-3, 72 h; PC3 cells, 3 days; read-out: MeB Cell Line IC50
Experimental: as §1, §2

PLK1 kinase domain = target: T1, PLK1 kinase domain (Homo sapiens, UniProt P53350); test: Assay for inhibition of PLK1 (SPA, 33P-ATP, His-tagged PLK kinase domain); type: biochemical; conditions: 2 μM ATP, read-out: Ave pIC50 PLK Enzyme Inhibition (converted)
T1 construct: made in house; host or cells: baculovirus-infected T. ni insect cells
T1 sequence (P53350 21-346): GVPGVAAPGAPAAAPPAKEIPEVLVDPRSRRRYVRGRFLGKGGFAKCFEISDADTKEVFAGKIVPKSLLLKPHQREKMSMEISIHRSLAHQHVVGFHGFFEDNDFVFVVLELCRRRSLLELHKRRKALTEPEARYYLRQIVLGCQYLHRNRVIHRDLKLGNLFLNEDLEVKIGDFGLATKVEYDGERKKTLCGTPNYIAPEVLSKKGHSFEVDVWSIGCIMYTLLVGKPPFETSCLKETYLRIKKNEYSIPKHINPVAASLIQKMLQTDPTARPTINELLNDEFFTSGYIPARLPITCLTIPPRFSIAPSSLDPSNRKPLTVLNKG
Experimental: I. Assay for Inhibition of PLK1
A. Preparation of 6× N-terminal His-tagged PLK Kinase Domain
6× N-terminal His-tagged PLK kinase domain (amino acids 21-346 preceded by […]) was prepared from baculovirus infected T. ni cells under polyhedrin promoter control. All procedures were performed at 4° C. Cells were lysed in 25 mM HEPES, 200 mM NaCl, 25 mM imidazole; pH 8.0. The homogenate was centrifuged at 14K rpm in a SLA-1500 rotor for 40 min and the supernatant filtered through a 1.2 micron filter. The supernatant was loaded onto a Nickel chelating Sepharose (Amersham Pharmacia) column and washed with 25 mM HEPES, 500 mM NaCl, 25 mM imidazole; pH 8.0. The column was then washed with a 16.6% B step where buffer B is 25 mM HEPES, 500 mM NaCl, 300 mM imidazole; pH 8.0. Protein was eluted using a 10-column volume linear gradient from 16.6% B to 100% B. Fractions containing PLK were determined by SDS-PAGE. PLK was concentrated using a 10 kDa molecular weight cutoff membrane and then loaded onto a Superdex 75 gel filtration (Amersham Pharmacia) column equilibrated in 25 mM HEPES, 1 mM DTT, 500 mM NaCl; pH 8.0. Fractions containing PLK were determined by SDS-PAGE. PLK was pooled, aliquoted and stored at −80° C. Samples were quality controlled using mass spectrometry.
B. Enzyme Activity+/−Inhibitors was Determined as Follows:
Compounds were added to the plate (1 μl in 100% DMSO). DMSO (2% final) and EDTA (55.5 mM final) were used as controls. Reaction Mix A is prepared as follows at 4° C.:
Reaction Mix A (substrate Mix): • 25 mM HEPES, pH 7.2 • 15 mM MgCl2 • 2 μM ATP • 0.1 μCi/well ^33P-γ ATP (10 Ci/mMol) • 2 μM substrate peptide (Biotin-Ahx-[…]) Reaction Mix B is prepared as follows at 4° C.:
Reaction Mix B (Enzyme Mix) • 25 mM HEPES, pH 7.2 • 15 mM MgCl2 • 0.15 mg/ml BSA • 2 mM DTT • 2-10 nM PLK1 kinase domain
Reaction Mix A (20 μl) is added per well. Reaction Mix B (20 μl) is added per well. Incubate 1.5 hrs. at RT. The enzymatic reaction is stopped with 175 μl of SPA/EDTA bead mix (29 mM EDTA, 2.5 mg/ml Streptavidin-coated SPA in Standard Dulbecco's PBS (without Mg^2+ and Ca^2+), 60 μM ATP). Plates are sealed spun (after a 1 hr incubation at RT) at 1,000×g for 7 min or settled overnight, then plates counted in Packard TopCount for 30 seconds/well.

[4] = tested on: Normal Human foreskin fibroblasts (HFF); test: Methylene Blue Growth Inhibition Assay, HFF; type: cell-based; conditions: 72 h, HFF cells, 3 days, read-out: MeB Cell Line IC50
Experimental: as §1, §2

[5] = tested on: H460 lung tumor cell line; test: Methylene Blue Growth Inhibition Assay, H460; type: cell-based; conditions: Homo sapiens, NCI-H460, 72 h; H460 cells, 3 days; read-out: MeB Cell Line IC50
Experimental: as §1, §2

[6] = tested on: MCF7 breast tumor cell line; test: Methylene Blue Growth Inhibition Assay, MCF7; type: cell-based; conditions: Homo sapiens, 72 h; MCF7 cells, 3 days; read-out: MeB Cell Line IC50
Experimental: as §1, §2

| IC50 (PLK1 kinase domain) [nM] | SMILES | also measured |
| --- | --- | --- |
| < 100 | COc1cc(Nc2ncc([N+](=O)[O-])c(Nc3cccc4[nH]ccc34)n2)cc(OC)c1OC [Example 15, N^4-(1H-indol-4-yl)-5-nitro-N^2-(3,4,5-trimethoxyphenyl)pyrimidine-2,4-diamine hydrochloride] | pIC50 [1]: > 6.00; pIC50 [2]: 5.00 to 6.00; pIC50 [3]: 5.00 to 6.00; pIC50 [4]: 5.00 to 6.00; pIC50 [5]: 5.00 to 6.00; pIC50 [6]: 5.00 to 6.00 |
| < 100 | CNC(=O)c1ccccc1Nc1nc(Nc2ccc(NC(C)=O)cc2)ncc1[N+](=O)[O-] [Example 13, 2-[(2-{[4-(acetylamino)phenyl]amino}-5-nitropyrimidin-4-yl)amino]-N-methylbenzamide hydrochloride] |  |
| < 100 | CC(=O)Nc1ccc(Nc2ncc([N+](=O)[O-])c(Nc3ccccc3C(=O)OC3CCCCC3)n2)cc1 [Example 21, Cyclohexyl 2-[(2-{[4-(acetylamino)phenyl]amino}-5-nitropyrimidin-4-yl)amino]benzoate hydrochloride] |  |
| > 10000 | COc1cc(Nc2nc(Nc3ccc(NC(C)=O)cc3)ncc2Br)cc(OC)c1OC [Example 28, N-[4-(5-Bromo-4-[(3,4,5-trimethoxyphenyl)amino]pyrimidin-2-yl}amino)phenyl]acetamide hydrochloride] |  |
| < 100 | COC(=O)c1c(C)cccc1Nc1nc(Nc2ccc(NC(C)=O)cc2)ncc1[N+](=O)[O-] [Example 31, Methyl 2-[(2-{[4-(acetylamino)phenyl]amino}-5-nitropyrimidin-4-yl)amino]-6-methylbenzoate hydrochloride] |  |
| < 100 | COc1cc(Nc2ncc([N+](=O)[O-])c(Nc3cccc4ccc(O)cc34)n2)cc(OC)c1OC [Example 37, 8-({5-Nitro-2-[(3,4,5-trimethoxyphenyl)amino]pyrimidin-4-yl}amino)-2-naphthol hydrochloride] |  |
| < 100 | CC(=O)Nc1ccc(Nc2ncc([N+](=O)[O-])c(Nc3ccccc3C(=O)OCC(C)C)n2)cc1 [Example 32, Isobutyl 2-[(2-{[4-(acetylamino)phenyl]amino}-5-nitropyrimidin-4-yl)amino]benzoate hydrochloride] |  |
| < 100 | COC(=O)c1ccccc1Nc1nc(Nc2cc(OC)c(OC)c(OC)c2)ncc1[N+](=O)[O-] [Example 17, Methyl 2-({5-nitro-2-[(3,4,5-trimethoxyphenyl)amino]pyrimidin-4-yl}amino)benzoate hydrochloride] |  |
| 100 to 10000 | COC(=O)c1ccc(C(=O)OC)c(Nc2nc(Nc3ccc(NC(C)=O)cc3)ncc2[N+](=O)[O-])c1 [Example 29, Dimethyl 2-[(2-{[4-(acetylamino)phenyl]amino}-5-nitropyrimidin-4-yl)amino]terephthalate hydrochloride] |  |
| < 100 | COc1cc(Nc2ncc([N+](=O)[O-])c(Nc3ccccc3C(C)=O)n2)cc(OC)c1OC [Example 35, 1-[2-({5-Nitro-2-[(3,4,5-trimethoxyphenyl)amino]pyrimidin-4-yl}amino)phenyl]ethanone hydrochloride] |  |
| < 100 | CC(=O)Nc1ccc(Nc2ncc([N+](=O)[O-])c(Nc3ccccc3C(=O)O)n2)cc1 [Example 23, 2-[(2-{[4-(Acetylamino)phenyl]amino}-5-nitropyrimidin-4-yl)amino]benzoic acid hydrochloride] |  |
| < 100 | CC(=O)Nc1ccc(Nc2ncc([N+](=O)[O-])c(Nc3cccc(C)c3C(=O)O)n2)cc1 [Example 33, 2-[(2-{[4-(Acetylamino)phenyl]amino}-5-nitropyrimidin-4-yl)amino]-6-methylbenzoic acid hydrochloride] |  |
|  | COc1cc(Nc2ncc([N+](=O)[O-])c(Nc3ccccc3C(N)=O)n2)cc(OC)c1OC [Example 3, 2-({5-nitro-2-[(3,4,5-trimethoxyphenyl)amino]pyrimidin-4-yl}amino)benzamide hydrochloride] | pIC50 [1]: > 6.00; pIC50 [2]: > 6.00; pIC50 [3]: 5.00 to 6.00; pIC50 [4]: 5.00 to 6.00; pIC50 [5]: > 6.00; pIC50 [6]: > 6.00 |
| < 100 | CC(=O)Nc1ccc(Nc2ncc(Br)c(Nc3ccccc3N3CCOCC3)n2)cc1 [Example 25, N-[4-({5-Bromo-4-[(2-morpholin-4-ylphenyl)amino]pyrimidin-2-yl}amino)phenyl]acetamide hydrochloride] |  |
| < 100 | COc1cc(Nc2ncc([N+](=O)[O-])c(Nc3ccccc3C(=O)O)n2)cc(OC)c1OC [Example 1, 2-({5-nitro-2-[(3,4,5-trimethoxyphenyl)amino]pyrimidin-4-yl}amino)benzoic acid hydrochloride] |  |
| < 100 | COc1cc(Nc2ncc(C(C)=O)c(Nc3ccccc3C(=O)NC(C)(C)C)n2)cc(OC)c1OC [Example 38, N-(tert-butyl)-2-({5-methyl ketone-2-[(3,4,5-trimethoxyphenyl)amino]pyrimidin-4-yl}amino) benzamide] |  |
| 100 to 10000 | COc1cc(Nc2ncc(Br)c(Nc3ccccc3N3CCOCC3)n2)cc(OC)c1OC [Example 27, 5-Bromo-N^4-(2-morpholin-4-ylphenyl)-N^2-(3,4,5-trimethoxyphenyl)-pyrimidine-2,4-diamine hydrochloride] |  |
| < 100 | COc1cc(Nc2ncc(Br)c(Nc3ccccc3C(C)=O)n2)cc(OC)c1OC [Example 11, 1-[2-({5-bromo-2-[(3,4,5-trimethoxyphenyl)amino]pyrimidin-4-yl}amino)phenylethanone hydrochloride] |  |
| 100 to 10000 | CC(=O)Nc1ccc(Nc2ncc([N+](=O)[O-])c(Nc3ccccc3C(=O)OCc3ccccc3)n2)cc1 [Example 30, Benzyl 2-[(2-{[4-(acetylamino)phenyl]amino}-5-nitropyrimidin-4-yl)amino]benzoate hydrochloride] |  |
| < 100 | CC(=O)Nc1ccc(Nc2ncc(Br)c(Nc3ccccc3C(C)=O)n2)cc1 [Example 24, N-[4-({4-[(2-Acetylphenyl)amino]-5-bromopyrimidin-2-yl}amino)phenyl]acetamide hydrochloride] |  |
